13 compounds from patent publication US20110098298A1, “New Pyridin-3-Amine Derivatives” (priority 2006, published 2011) can be followed below.

The target in assay [1] is T1, human p38alfa (SAPKa) enzyme (Homo sapiens, UniProt Q16539).
T1 construct: purchased University of Dundee
The experiment in a line: p38alpha enzymatic inhibition assay (FRET, ATF2 substrate). It is filed as biochemical. The following applies: 1 h pre-incubation, ATP 60 μM, ATF2 0.62 μM, 25° C., read-out: p38α IC50. As for the experimental part: Enzymatic activity assay was performed in 96-well microtiter plates (Corning, catalog number # 3686) using a total volume of 50 μl of an assay buffer composed of 50 mM HEPES pH 7.5, 10 mM MgCl2, 1.75 mM Na3VO4.
Various concentrations of the test compound or vehicle controls were pre-incubated for one hour with 0.055 μg/ml of the human p38alfa (SAPKa) enzyme (obtained from University of Dundee). […] Addition of the detection reagents, streptavidin-XL665 and anti-phosphoresidue antibody coupled to Europium cryptate, caused the juxtaposition of the cryptate and the XL665 fluorophore, resulting in fluorescence energy transfer (FRET). The FRET intensity depends on the amount of bounded cryptate antibody, which is proportional to the extent of substrate phosphorylation. FRET intensity was measured using Victor 2V spectrofluorometer. Data were analyzed by non-linear regression (Hill equation) to generate a dose-response curve. The calculated IC50 value is the concentration of the test compound that caused a 50% decrease in the maximal FRET intensity.

The subject of assay [2] is TNFα production in human monocytic cell line THP-1. The experiment in a line: Inhibition of LPS-induced TNFα production in THP-1 cells. It is filed as cell-based. The following applies: LPS 10 μg/ml, 5 h, TNFα ELISA. The protocol: The activity of compounds in inhibiting TNFα production was measured in a cellular assay using the human monocytic cell line THP-1. For this purpose, 2×10^5 cells/well were plated in tissue-culture treated round-bottom 96-well plates in RPMI (containing 10% FCS, L-Gln 2 mM, Hepes buffer 10 mM, sodium pyruvate 1 mM, glucose 4.5 gr/L, HNaCO3 1.5 g/L and beta-mercaptoethanol 50 μM), together with compounds at the desired test concentration and LPS (Sigma, L2630) at a final 10 μg/ml concentration. Compounds were resuspended in 100% DMSO at a concentration of 1 mM and titrated thereof in 10× dilutions in medium. Controls included stimulated cells alone and stimulated cells treated with the highest concentration of compound vehicle (1% DMSO). Cells were incubated for 5 h at 37° C. in a 5% CO2 atmosphere. Cell supernatant was recovered by centrifugation and diluted 5-fold prior to testing in a standard human TNFα ELISA (RnD systems).
Data were analyzed by non-linear regression (Hill equation) to generate a dose-response curve. The calculated IC50 value is the concentration of the test compound that caused a 50% decrease in the maximal TNFα production.

The structures appear in SMILES notation.

T1 sequence (Q16539 whole entry): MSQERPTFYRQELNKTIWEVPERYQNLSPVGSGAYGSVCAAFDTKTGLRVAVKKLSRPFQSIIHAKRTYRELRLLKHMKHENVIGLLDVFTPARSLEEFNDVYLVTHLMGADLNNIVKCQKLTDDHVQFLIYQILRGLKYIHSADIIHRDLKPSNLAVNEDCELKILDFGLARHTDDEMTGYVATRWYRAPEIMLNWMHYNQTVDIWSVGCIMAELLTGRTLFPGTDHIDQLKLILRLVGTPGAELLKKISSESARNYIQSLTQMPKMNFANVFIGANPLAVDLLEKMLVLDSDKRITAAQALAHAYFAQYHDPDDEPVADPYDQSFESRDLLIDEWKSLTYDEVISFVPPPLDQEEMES

Broadly, the IC50 is the concentration that inhibits the measured activity by half. In the case of `COc1ccccc1C(=O)c1cc[n+]([O-])c(-c2c(C)cccc2C)c1N` [Example 120, [3-Amino-2-(2,6-dimethylphenyl)-1-oxidopyridin-4-yl](2-methoxyphenyl)metha-none], the IC50 in assay [1] was 146 nM; in assay [2], 98 nM.

As for `Cc1cc(O)ccc1-c1nccc(C(=O)c2ccc(F)cc2F)c1N` [Example 47, [3-Amino-2-(4-hydroxy-2-methylphenyl)pyridin-4-yl](2,4-difluorophenyl)methanone], the IC50 stood at 277 nM in assay [1] and 402 nM in assay [2].

In the case of `Cc1cccc(C(=O)c2cc[n+]([O-])c(-c3c(F)cccc3F)c2N)c1` [Example 98, [3-Amino-2-(2,6-difluorophenyl)-1-oxidopyridin-4-yl](3-methylphenyl)methanone], the figures for the IC50 in assay [1] and in assay [2] were 20 nM and 48 nM, respectively.

As for `Cc1ccccc1-c1c(N)c(C(=O)c2ccccc2Cl)cc[n+]1[O-]` [Example 82, [3-Amino-2-(2-methylphenyl)-1-oxidopyridin-4-yl](2-chlorophenyl)methanone], the IC50 in assay [1] was 31 nM; in assay [2], 118 nM.

In assay [2], `Nc1c(C(=O)c2ccc(F)cc2F)cc[n+]([O-])c1-c1c(Cl)cccc1Cl` [Example 32, [3-Amino-2-(2,6-dichlorophenyl)-1-oxidopyridin-4-yl](2,4-difluorophenyl)methanone] yielded an IC50 of 19.4 nM.

As for `Nc1c(C(=O)c2ccc(F)cc2F)cc[n+]([O-])c1-c1ccccc1Cl` [Example 26, [3-Amino-2-(2-chlorophenyl)-1-oxidopyridin-4-yl](2,4-difluorophenyl)methanone], in assay [2], the IC50 turned out to be 76 nM.

With `Nc1c(C(=O)c2ccc(F)cc2F)ccnc1-c1cccc2c1OCO2` [Example 79, [3-Amino-2-(1,3-benzodioxol-4-yl)pyridin-4-yl](2,4-difluorophenyl)methanone], the IC50 is 103 nM in assay [1] and 53 nM in assay [2].

For `Cc1cc(O)ccc1-c1c(N)c(C(=O)c2ccc(F)cc2F)cc[n+]1[O-]` [Example 48, [3-Amino-2-(4-hydroxy-2-methylphenyl)-1-oxidopyridin-4-yl](2,4-difluorophenyl)methanone], the IC50 in assay [2] is 84 nM.

Consider `Cc1cccc(C)c1-c1c(N)c(C(=O)c2ccc(F)cc2F)cc[n+]1[O-]` [Example 36, [3-Amino-2-(2,6-dimethylphenyl)-1-oxidopyridin-4-yl](2,4-difluorophenyl)methanone], for which the IC50 in assay [2] is 33 nM.

With `Nc1c(C(=O)c2ccc(F)cc2F)ccnc1-c1ccccc1Cl` [Example 25, [3-Amino-2-(2-chlorophenyl)pyridin-4-yl](2,4-difluorophenyl)methanone], the IC50 in assay [1] is 251 nM; in assay [2], 130 nM.

Take `Nc1c(C(=O)c2cccc(F)c2)ccnc1-c1cccc2c1OCO2` [Example 109, [3-Amino-2-(1,3-benzodioxol-4-yl)pyridin-4-yl](3-fluorophenyl)methanone]: the results for the IC50 in assay [1] and in assay [2] were 359 nM and 349 nM, respectively.

For `COc1ccccc1C(=O)c1cc[n+]([O-])c(-c2c(F)cccc2F)c1N` [Example 118, [3-Amino-2-(2,6-difluorophenyl)-1-oxidopyridin-4-yl](2-methoxyphenyl)methanone], the results for the IC50 in assay [1] and in assay [2] were 86 nM and 140 nM, respectively.

As for `Cc1cccc(C(=O)c2cc[n+]([O-])c(-c3ccccc3C)c2N)c1` [Example 92, [3-Amino-2-(2-methylphenyl)-1-oxidopyridin-4-yl](3-methylphenyl)methanone], the IC50 is 34 nM in assay [1] and 54 nM in assay [2].
